pIC50: −log10 of the molar value. Read-outs that look alike come from different tables or passages of the source.
Tests used:
[1] = tested on: Aβ40 in conditioned medium of cells stably expressing Amyloid Precursor Protein (APP); experiment: In vitro BACE cell-based assay (Aβ40 in conditioned medium, sandwich ELISA); conditions: Homo sapiens;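 further: compounds added as a dilution series, secreted peptide quantified by europium time-resolved fluorescence readout, potency fitted from percent of control versus compound concentration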
[2] = target: Beta Secretase enzyme (BACE) (Homo sapiens, UniProt P56817); experiment: In vitro enzymatic BACE FRET (fluorescence resonance energy transfer) assay; format: biochemical;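 further: fluorescence read after 1 h with 50 nM quenched peptide substrate spanning the BACE cleavage site, in pH 4.2 acetate buffer containing 10% DMSO and nonionic detergent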
[3] = HEK293, Table 1, HEK cells, read-out: HEK cell assay
[4] = Table 1, read-out: BACE1 FRET assay

Beta Secretase enzyme (BACE), sequence (P56817 46-501): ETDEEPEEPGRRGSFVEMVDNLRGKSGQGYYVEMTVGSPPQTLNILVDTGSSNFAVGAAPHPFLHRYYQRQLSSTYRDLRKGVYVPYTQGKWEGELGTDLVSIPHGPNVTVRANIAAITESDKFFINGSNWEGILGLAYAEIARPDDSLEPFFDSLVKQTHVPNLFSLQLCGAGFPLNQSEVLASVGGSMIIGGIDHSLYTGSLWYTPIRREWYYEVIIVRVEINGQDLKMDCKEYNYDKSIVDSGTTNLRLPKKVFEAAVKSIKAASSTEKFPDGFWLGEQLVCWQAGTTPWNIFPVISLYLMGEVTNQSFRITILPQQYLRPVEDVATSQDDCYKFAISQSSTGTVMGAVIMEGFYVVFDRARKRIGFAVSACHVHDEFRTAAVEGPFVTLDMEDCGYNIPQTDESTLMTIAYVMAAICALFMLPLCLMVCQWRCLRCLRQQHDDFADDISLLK

Compound	pIC50 ([1]; HEK293, HEK cells, cell-based assay, read-out: HEK cell assay (IC50))	pIC50 ([2]; BACE enzyme FRET assay, read-out: BACE1 FRET assay (IC50))	pIC50 [1, 3]	pIC50 [2, 4]
CC(=O)N[C@@H](Cc1cccc(F)c1)[C@H](O)CN[C@H]1CC2(CCC2)Oc2ncc(C[C@H](C)C(F)(F)F)cc21 [compound 314]	7.95	8.38	–	–
CC(=O)N[C@@H](Cc1ccccc1)[C@H](O)CN[C@H]1CC2(CCC2)Oc2ncc(CC3(C(F)(F)F)CC3)cc21 [compound 318]	–	–	7.07	7.46
COCC(=O)N[C@@H](Cc1ccccc1)[C@H](O)CN[C@H]1CC2(CCC2)Oc2ncc(CC3(C(F)(F)F)CC3)cc21 [compound 319]	–	–	6.51	7.25
CC(=O)N[C@@H](Cc1ccc2c(c1)OCO2)[C@H](O)CN[C@H]1CC2(CCC2)Oc2ncc(C[C@H](C)C(F)(F)F)cc21 [compound 320]	–	–	6.92	6.81
CC(=O)N[C@@H](Cc1ccc2c(c1)OCO2)[C@H](O)CN[C@H]1CC2(CCC2)Oc2ncc(C[C@@H](C)C(F)(F)F)cc21 [compound 321]	–	–	7.19	6.87
COCC(=O)N[C@@H](Cc1ccc2c(c1)OCO2)[C@H](O)CN[C@H]1CC2(CCC2)Oc2ncc(CC(C)C)cc21 [compound 334]	–	–	7.17	7.32
CO[C@H](C)C(=O)N[C@@H](Cc1ccc2c(c1)OCO2)[C@H](O)CN[C@H]1CC2(CCC2)Oc2ncc(CC(C)C)cc21 [compound 335]	–	–	7.12	7.42
CO[C@H](C)C(=O)N[C@@H](Cc1ccc2c(c1)OCO2)[C@H](O)CN[C@H]1CC2(CCC2)Oc2nc(F)c(CC(C)C)cc21 [compound 336]	–	–	6.39	6.87
COCC(=O)N[C@@H](Cc1ccc2c(c1)OCO2)[C@H](O)CN[C@H]1CC2(CCC2)Oc2nc(F)c(CC(C)C)cc21 [compound 337]	–	–	6.28	6.92
CC(=O)N[C@@H](Cc1ccc2c(c1)OCO2)[C@H](O)CN[C@H]1CC2(CCC2)Oc2nc(F)c(CC(C)C)cc21 [compound 338]	–	–	6.60	6.96
COCC(=O)N[C@@H](Cc1ccc2c(c1)OCO2)[C@H](O)CN[C@H]1CC2(CCC2)Oc2ncc(C[C@H](C)C(F)(F)F)cc21 [compound 339]	–	–	6.90	7.36
CO[C@H](C)C(=O)N[C@@H](Cc1ccc2c(c1)OCO2)[C@H](O)CN[C@H]1CC2(CCC2)Oc2ncc(C[C@H](C)C(F)(F)F)cc21 [compound 340]	–	–	7.04	6.83
COCC(=O)N[C@@H](Cc1ccc2c(c1)OCO2)[C@H](O)CN[C@H]1CC2(CCC2)Oc2ncc(C[C@@H](C)C(F)(F)F)cc21 [compound 341]	–	–	6.86	7.23
CO[C@H](C)C(=O)N[C@@H](Cc1ccc2c(c1)OCO2)[C@H](O)CN[C@H]1CC2(CCC2)Oc2ncc(C[C@@H](C)C(F)(F)F)cc21 [compound 342]	–	–	6.46	6.76
CO[C@H](C)C(=O)N[C@@H](Cc1cccc(C#N)c1)[C@H](O)CN[C@H]1CC2(CCC2)Oc2ncc(CC(F)(F)F)cc21 [compound 345]	–	–	7.22	7.58
COCC(=O)NC(Cc1cc(F)cc(F)c1)C(O)CNC1CC2(CCC2)Oc2ncc(C(O)C(F)(F)F)cc21 (stereo not drawn) [compound 349]	–	–	6.86	6.78
CC(=O)N[C@@H](Cc1ccc(F)c(Br)c1)[C@H](O)CN[C@H]1CC2(CCC2)Oc2ncc(OC(C)(C)C)cc21 [compound 353, N-((1S,2R)-1-((3-bromo-4-fluorophenyl)methyl)-3-(((4′S)-6′-((1,1-dimethylethyl)oxy)-3′,4′-dihydrospiro[cyclobutane-1,2′-pyrano[2,3-b]pyridin]-4′-yl)amino)-2-hydroxypropyl)acetamide]	–	–	6.37	6.92
CC(=O)N[C@@H](Cc1ccc(F)c(Br)c1)[C@H](O)CN(C)[C@H]1CC2(CCC2)Oc2ncc(CC(C)(C)C)cc21 [compound 354]	–	–	5.46	5.32
CC(=O)N[C@@H](Cc1ccc(F)cc1)[C@H](O)CNC1c2cc(CC(C)(C)C)cnc2OC2(CCC2)C1F (stereo partly drawn) [compound 355]	–	–	6.95	6.93
CC(=O)N[C@@H](Cc1ccc(F)cc1)[C@H](O)CN[C@@H]1c2cc(CC(C)(C)C)cnc2OC2(CCC2)[C@H]1F [compound 357]	–	–	< 5.00	4.88
CC(=O)N[C@@H](Cc1ccc(F)cc1)[C@H](O)CN[C@@H]1c2cc(CC(C)(C)C)cnc2OC2(CCC2)[C@@H]1F [compound 358]	–	–	6.45	7.65
COC(=O)N[C@@H](Cc1ccc2c(c1)OCO2)[C@H](O)CN[C@H]1CC2(CCC2)Oc2ncc([C@H](F)C(C)(C)C)cc21 [compound 359]	–	–	6.68	6.70
COCC(=O)N[C@@H](Cc1ccc2c(c1)OCO2)[C@H](O)CN[C@H]1CC2(CCC2)Oc2ncc(CC(C)(C)C(F)(F)F)cc21 [compound 362]	–	–	6.91	7.22
CO[C@H](C)C(=O)N[C@@H](Cc1ccc2c(c1)OCO2)[C@H](O)CN[C@H]1CC2(CCC2)Oc2ncc(CC(C)(C)C(F)(F)F)cc21 [compound 363]	–	–	6.80	7.31

The remaining lines, values ahead:

pIC50 ([1]; HEK293, HEK cells, cell-based assay, read-out: HEK cell assay (IC50))	pIC50 ([2]; BACE enzyme FRET assay, read-out: BACE1 FRET assay (IC50))	pIC50 [1, 3]	pIC50 [2, 4]	Compound
–	–	8.03	8.21	CC(=O)N[C@@H](Cc1cccc(F)c1)[C@H](O)CN[C@H]1CC2(CCC2)Oc2ncc(C[C@@H](C)C(F)(F)F)cc21 [compound 315]
–	–	7.30	7.87	CC(=O)N[C@@H](Cc1ccccc1)[C@H](O)CN[C@H]1CC2(CCC2)Oc2ncc(C[C@H](C)C(F)(F)F)cc21 [compound 316]
–	–	7.56	7.71	CC(=O)N[C@@H](Cc1ccccc1)[C@H](O)CN[C@H]1CC2(CCC2)Oc2ncc(C[C@@H](C)C(F)(F)F)cc21 [compound 317]
–	–	7.40	7.96	CC(=O)N[C@@H](Cc1cccc(F)c1)[C@H](O)CN[C@H]1CC2(CCC2)Oc2ncc([C@H](F)[C@H](C)C(F)(F)F)cc21 [compound 322]
–	–	7.86	8.43	COCC(=O)N[C@@H](Cc1cccc(F)c1)[C@H](O)CN[C@H]1CC2(CCC2)Oc2ncc(C[C@H](C)C(F)(F)F)cc21 [compound 325]
–	–	7.57	8.11	COCC(=O)N[C@@H](Cc1cccc(F)c1)[C@H](O)CN[C@H]1CC2(CCC2)Oc2ncc(C[C@@H](C)C(F)(F)F)cc21 [compound 326]
–	–	7.22	8.01	COCC(=O)N[C@@H](Cc1cccc(F)c1)[C@H](O)CN[C@H]1CC2(CCC2)Oc2ncc(CC3(C(F)(F)F)CC3)cc21 [compound 327]
–	–	7.64	8.04	COCC(=O)N[C@@H](Cc1ccccc1)[C@H](O)CN[C@H]1CC2(CCC2)Oc2ncc(CC(C)C)cc21 [compound 328]
–	–	8.22	8.49	COCC(=O)N[C@@H](Cc1cccc(F)c1)[C@H](O)CN[C@H]1CC2(CCC2)Oc2ncc(CC(C)C)cc21 [compound 329]
–	–	7.36	7.66	CO[C@H](C)C(=O)N[C@@H](Cc1ccc2c(c1)OCO2)[C@H](O)CN[C@H]1CC2(CCC2)Oc2ncc([C@H](F)C(C)(C)C)cc21 [compound 330]
–	–	7.35	7.29	CO[C@@H](C)C(=O)N[C@@H](Cc1ccc2c(c1)OCO2)[C@H](O)CN[C@H]1CC2(CCC2)Oc2ncc([C@H](F)C(C)(C)C)cc21 [compound 331]
–	–	7.72	7.96	COCC(=O)N[C@@H](Cc1ccc(F)cc1)[C@H](O)CN[C@H]1CC2(CCC2)Oc2ncc(CC(C)C)cc21 [compound 332]
–	–	7.32	7.54	CO[C@H](C)C(=O)N[C@@H](Cc1ccc(F)cc1)[C@H](O)CN[C@H]1CC2(CCC2)Oc2ncc(CC(C)C)cc21 [compound 333]
–	–	7.38	7.46	CO[C@H](C)C(=O)N[C@@H](Cc1cc(F)c2c(c1)OCO2)[C@H](O)CN[C@H]1CC2(CCC2)Oc2ncc(CC(C)C)cc21 [compound 343]
–	–	7.35	8.05	CO[C@H](C)C(=O)N[C@@H](Cc1cccc(F)c1)[C@H](O)CN[C@H]1CC2(CCC2)Oc2ncc(CC(F)(F)F)cc21 [compound 344]
–	–	7.33	7.99	CO[C@H](C)C(=O)N[C@@H](Cc1cc(F)cc(F)c1)[C@H](O)CN[C@H]1CC2(CCC2)Oc2ncc(CC(F)(F)F)cc21 [compound 346]
–	–	7.72	7.98	COCC(=O)N[C@@H](Cc1cccc(C#N)c1)[C@H](O)CN[C@H]1CC2(CCC2)Oc2ncc(CC(F)(F)F)cc21 [compound 347]
–	–	7.74	8.16	COCC(=O)N[C@@H](Cc1cc(F)cc(F)c1)[C@H](O)CN[C@H]1CC2(CCC2)Oc2ncc(CC(F)(F)F)cc21 [compound 348]
–	–	7.61	8.04	COCC(=O)N[C@@H](Cc1cccc(F)c1)[C@H](O)CN[C@H]1CC2(CCC2)Oc2ncc(CC(F)(F)F)cc21 [compound 350]
–	–	7.91	8.56	COCC(=O)N[C@@H](Cc1ccc(F)c(Cl)c1)[C@H](O)CN[C@H]1CC2(CCC2)Oc2ncc(CC(C)(C)C)cc21 [compound 351]
–	–	7.75	8.43	COCC(=O)N[C@@H](Cc1ccc(F)c(Br)c1)[C@H](O)CN[C@H]1CC2(CCC2)Oc2ncc(CC(C)(C)C)cc21 [compound 352]
–	–	8.19	8.50	COCC(=O)N[C@@H](Cc1ccccc1)[C@H](O)CN[C@H]1CC2(CCC2)Oc2ncc([C@H](F)C(C)(C)C)cc21 [compound 356]
–	–	8.32	8.51	CO[C@H](C)C(=O)N[C@@H](Cc1cccc(F)c1)[C@H](O)CN[C@H]1CC2(CCC2)Oc2ncc(CC(C)(C)C)cc21 [compound 360]
–	–	8.03	8.18	CO[C@@H](C)C(=O)N[C@@H](Cc1cccc(F)c1)[C@H](O)CN[C@H]1CC2(CCC2)Oc2ncc(CC(C)(C)C)cc21 [compound 361]
